Data: EP4273147A1, “SUBSTITUTED SPIROLACTAMS, SALTS THEREOF AND THEIR USE AS HERBICIDALLY ACTIVE SUBSTANCES” (Bayer Aktiengesellschaft, priority 2022, dated 2023)

Tests used:
[1] = test system: KCHSC; assay: Herbicidal post-emergence action (Table B4); assay type: in vivo, Kochia scoparia; settings: application rate 1280 g/ha; rated visually after about 3 weeks
Method: (§1) Seeds of mono- and dicotyledonous weed plants were placed in plastic pots in sandy loam soil (doubly sown with in each case one species of mono- or dicotyledonous weed plants per pot), covered with soil and cultivated in a greenhouse under controlled growth conditions. 2 to 3 weeks after sowing, the test plants were treated at the one-leaf stage. […] After the test plants had been kept in the greenhouse under optimum growth conditions for about 3 weeks, the activity of the preparations was rated visually in comparison to untreated controls. For example, 100% activity = the plants have died, 0% activity = like control plants.

[2] = test system: SETVI; assay: Herbicidal pre-emergence action (Table A5); assay type: in vivo, Setaria viridis; settings: application rate 1280 g/ha; visual grading after ca. 3 weeks
How it was run: (§2)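 Double sowing per pot (1 monocot + 1 dicot weed species), sandy loam substrate, seeds covered with soil.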

[3] = test system: STEME; assay: Herbicidal pre-emergence action (Table A6); assay type: in vivo, Stellaria media; settings: application rate 1280 g/ha; visual grading after ca. 3 weeks
How it was run: as §2

[4] = test system: LOLRI; assay: Herbicidal pre-emergence action (Table A3); assay type: in vivo, Lolium rigidum; settings: application rate 1280 g/ha, visual grading after ca. 3 weeks; for pest or weed control at 1280 g/ha: Lolium rigidum, pre-emergence, 504 h, read-out: pre-emergence activity against LOLRI
How it was run: as §2

[5] = test system: ECHCG; assay: Herbicidal pre-emergence action (Table A2); assay type: in vivo, Echinochloa crus-galli; settings: application rate 1280 g/ha; visual grading after ca. 3 weeks
How it was run: as §2

[6] = test system: MATIN; assay: Herbicidal pre-emergence action (Table A4); assay type: in vivo, Matricaria inodora; settings: application rate 1280 g/ha; visual grading after ca. 3 weeks
How it was run: as §2

[7] = test system: KCHSC; assay: Herbicidal pre-emergence action (Table A10); assay type: in vivo, Kochia scoparia; settings: application rate 1280 g/ha; visual grading after ca. 3 weeks
How it was run: as §2

[8] = test system: AMARE; assay: Herbicidal pre-emergence action (Table A8); assay type: in vivo, Amaranthus retroflexus; settings: application rate 1280 g/ha; visual grading after ca. 3 weeks vs untreated controls (100% = plants have died off, 0% = as control plants)
How it was run: as §2

[9] = test system: AMARE; assay: Herbicidal post-emergence action (Table B11); assay type: in vivo, Amaranthus retroflexus; settings: application rate 1280 g/ha
Method: as §1

[10] = test system: STEME; assay: Herbicidal post-emergence action (Table B9); assay type: in vivo, Stellaria media; settings: application rate 1280 g/ha
Method: as §1

[11] = test system: SETVI; assay: Herbicidal post-emergence action (Table B8); assay type: in vivo, Setaria viridis; settings: application rate 1280 g/ha
How it was run: (§3)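 Visual rating of activity versus untreated plants about 3 weeks after treatment: 0% means no difference from controls, 100% means complete kill. Test weeds were raised from seed in sandy loam under controlled greenhouse conditions and sprayed at the one-leaf stage.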

[12] = test system: POAAN; assay: Herbicidal post-emergence action (Table B7); assay type: in vivo, Poa annua; settings: application rate 1280 g/ha
How it was run: as §3

[13] = test system: VERPE; assay: Herbicidal post-emergence action (Table B10); assay type: in vivo, Veronica persica; settings: application rate 1280 g/ha
How it was run: as §3

[14] = test system: ECHCG; assay: Herbicidal post-emergence action (Table B3); assay type: in vivo, Echinochloa crus-galli; settings: Echinochloa crus-galli, post-emergence, 504 h; application rate 1280 g/ha; rated visually after about 3 weeks; read-out: post-emergence activity against ECHCG
How it was run: as §3

[15] = test system: ABUTH; assay: Herbicidal post-emergence action (Table B1); assay type: in vivo, Abutilon theophrasti; settings: application rate 1280 g/ha; treated at one-leaf stage; rated visually after about 3 weeks vs untreated controls (100% = plants have died, 0% = like control plants)
How it was run: as §3

[16] = test system: POAAN; assay: Herbicidal pre-emergence action (Table A7); assay type: in vivo, Poa annua; settings: Poa annua, pre-emergence, 504 h; application rate 1280 g/ha; visual grading after ca. 3 weeks; read-out: pre-emergence activity against POAAN
How it was run: as §2

[17] = test system: LOLRI; assay: Herbicidal post-emergence action (Table B5); assay type: in vivo, Lolium rigidum; settings: application rate 1280 g/ha; rated visually after about 3 weeks
Method: as §1

Row | SMILES | post-emergence activity against KCHSC [1] | pre-emergence activity against SETVI [2] | pre-emergence activity against STEME [3] | pre-emergence activity against LOLRI [4] | pre-emergence activity against ECHCG [5] | pre-emergence activity against MATIN [6] | pre-emergence activity against KCHSC [7] | pre-emergence activity against AMARE [8] | post-emergence activity against AMARE [9] | post-emergence activity against STEME [10] | post-emergence activity against SETVI [11] | pest or weed control at 1280 g/ha [4] | post-emergence activity against POAAN [12] | post-emergence activity against VERPE [13] | pest or weed control at 1280 g/ha [14] | post-emergence activity against ABUTH [15] | pest or weed control at 1280 g/ha [16] | post-emergence activity against LOLRI [17]
1 | O=C1N(Cc2cccc(F)c2F)CCC12CCN(Cc1cccc(F)c1F)C2=O (racemic) [I-090] | 90% | 90% | 90% | 90% | 100% | 90% | 90% | – | – | – | – | – | – | – | – | – | – | –
2 | N#Cc1ccc(CN2CCCC3(CCCN(Cc4ccc(C#N)s4)C3=O)C2=O)s1 (single isomer, unassigned; (-)) [I-208, (-)-2,8-bis[(5-cyanothiophen-2-yl)methyl]-2,8-diazaspiro[5.5]undecane-1,7-dione] | – | 90% | 100% | – | – | – | 90% | 100% | 90% | 90% | 90% | 90% | 90% | 90% | 90% | 90% | 100% | –
3 | O=C1N(Cc2cccnc2C(F)(F)F)CCCC12CCCN(Cc1cccnc1C(F)(F)F)C2=O [I-184, (+)-2,8-bis{[2-(trifluoromethyl)pyridin-3-yl]methyl}-2,8-diazaspiro[5.5]undecane-1,7-dione] | 90% | – | – | – | 100% | – | – | – | 90% | – | – | 90% | 90% | 90% | 90% | – | – | 90%
